# Data reported in patent US20170312253A1 (The Third Affiliated Hospital, Third Military Medical …, priority 2014, published 2017).
# How the values were obtained:
# [1] = test system: APPswe/PS1DE9 (AD) transgenic mice; test: Open field test; assay type: in vivo; details: AD mice vs control group
# Description: (§1) APPswe/PS1DE9 (AD) transgenic mice were purchased from Jackson Laboratory, USA (No. 005864), raised in the SPF grade animal house of The Third Affiliated Hospital of The Third Military Medical University. All the processes and correlated experiments applied to the mice were approved and filed with the Animal Ethics Committee of the Third Military Medical University. […] Alternatively, the daily dose for the prophylactic group may be 6.4 mg/kg, and the daily dose for the treatment group may be 12.8 mg/kg. Administration from 3-month old to 9-month old is the prophylactic test, and administration from 9-month old to 12-month old is the therapeutic test After reaching a stated time, the mice in each group received behavioral tests according to the method in the follows. Three mice in each group were taken for Golgi staining. […] The entire process was recorded by video, and analyzed with an image analysis software (ANY-maze, Stoelting). In the platform test, the escape path length and escape latency were measured and calculated. In the probe test, the time in each quadrant and the time across platform were measured. […] In the open field test, the mouse was put in the center of an open field for 3 min, and its path was recorded by a tracking system (Limelight, ActiMetrics). At the same time, the numbers of rearing, grooming, defecation and urination of the mouse were recorded.
# [2] = test system: ischemia-reperfused elderly rats; details: cited from earlier work
# [3] = test system: APPswe/PS1DE9 (AD) transgenic mice; test: Morris water maze; assay type: in vivo; details: prophylactic and therapeutic test, vs control group
# Description: as §1
# [4] = test system: astrocyte; test: Astrocyte reaction immunostaining (GFAP); assay type: in vivo; details: AD mice
# Description: (§2) APPswe/PS1DE9 (AD) transgenic mice were purchased from Jackson Laboratory, USA (No. 005864), raised in the SPF grade animal house of The Third Affiliated Hospital of The Third Military Medical University. All the processes and correlated experiments applied to the mice were approved and filed with the Animal Ethics Committee of the Third Military Medical University. […] Alternatively, the daily dose for the prophylactic group may be 6.4 mg/kg, and the daily dose for the treatment group may be 12.8 mg/kg. Administration from 3-month old to 9-month old is the prophylactic test, and administration from 9-month old to 12-month old is the therapeutic test After reaching a stated time, the mice in each group received behavioral tests according to the method in the follows. Three mice in each group were taken for Golgi staining. The remaining mice were overly anaesthetized to receive brain anatomy. One side of the cerebral hemisphere was frozen and then for a biochemical analysis, and the other side of the cerebral hemisphere was fixed with 4% paraform for a histological analysis.
# (§3) Immunohistochemistry in the method of bleach section was carried out according to the previous steps. The primary antibodies were rabbit-anti-mouse CD45 antibody (for labelling microglias), rabbit-anti-mouse GFAP (for labelling astrocytes) and rabbit-anti-mouse pSer396-Tau antibody, respectively. […]
# [5] = test system: SH-SY5Y cells; test: MTT cell viability assay, Aβ-treated SH-SY5Y cells; assay type: cell-based; details: 1 μM Aβ oligomers, 24 h, dose-dependent
# Description: The SH-SY5Y cell line was purchased from the Peking Union Hospital Cell Bank, cultured in a humidified incubator under 5% CO2 and 37° C., A MTT cell viability assay was performed according to the instructions in the kit (Sigma). […] The optical density values were determined at a wavelength of 563 nm (Synergy H4, Bio Tek). The neurite growth test was performed according to the method described in the prior documents (see, for example, Wang, Y. J., et al., Effects of proNGF on neuronal viability, neurite growth and amyloid-beta metabolism. Neurotox Res, 2010, 17(3): p. 257-67).
# [6] = target: Aβ42 (Homo sapiens, UniProt P05067); test: Thioflavin T fluorescence test, inhibition of Aβ aggregation; assay type: biochemical; details: 10 μM Aβ 42, Edaravone 0-100 μM, 37° C., two days
# [7] = test system: microglia; test: Microglia reaction immunostaining (CD45); assay type: in vivo; details: AD mice
# Description: as §2, §3
# [8] = test system: Aβ 40, Aβ 42; test: ELISA of Aβ 40, Aβ 42 in brain extracts (TBS, SDS, FA); assay type: in vivo; details: AD mice, 2% SDS and FA extracts
# Description: as §2
# After homogenating the frozen brain tissues, extraction was conducted with TBS, SDS and formic acid successively. The TBS, SDS and formic acid extracts represent soluble Aβ, loosen senile plaques and compact senile plaques, respectively. […]
# [9] = target: Gsk-3β (Homo sapiens, UniProt P49841); test: In vitro test of Gsk-3β activities
# [10] = test system: neurons; test: Neuron apoptosis in the brain of AD mice; assay type: in vivo
# Description: as §2
# [11] = test system: Aβ induced oxidative stress; test: ROS detection; assay type: cell-based
# Description: The ROS detection was performed according to the scheme provided by the manufacturer (Cell Biolabs Inc).
# [12] = prophylactic and therapeutic test
# Chain of Gsk-3β (P49841 whole entry, species assumed): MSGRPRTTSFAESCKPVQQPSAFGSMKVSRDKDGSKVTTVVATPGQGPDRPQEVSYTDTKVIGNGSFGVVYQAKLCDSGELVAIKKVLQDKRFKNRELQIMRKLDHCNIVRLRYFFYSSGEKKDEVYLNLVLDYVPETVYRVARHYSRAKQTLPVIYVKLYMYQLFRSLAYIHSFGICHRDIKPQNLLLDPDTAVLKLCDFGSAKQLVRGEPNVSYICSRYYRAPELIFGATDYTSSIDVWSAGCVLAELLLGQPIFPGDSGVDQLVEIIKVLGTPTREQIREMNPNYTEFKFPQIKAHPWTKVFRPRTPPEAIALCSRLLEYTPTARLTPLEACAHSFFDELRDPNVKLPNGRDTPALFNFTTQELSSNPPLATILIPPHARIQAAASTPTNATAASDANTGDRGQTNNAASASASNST
# Chain of Aβ42 (P05067 672-713 limits assumed): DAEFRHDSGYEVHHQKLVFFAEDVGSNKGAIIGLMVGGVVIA
smiles,measurement,setting,value
"CC1=NN(c2ccccc2)C(=O)C1 [Edaravone, 3-methyl-1-phenyl-2-pyrazolin-5-one]",open field probe distance,[1],significantly higher than in the control group
same,open field rearings,[1],significantly higher than in the control group
same,JNK-c-Jun pathway,[2],suppress the JNK-c-Jun pathway
same,glutathione peroxidase activity,[2],reduce the glutathione peroxidase activity
same,neuronal apoptosis,[2],decrease the neuronal apoptosis
same,Morris water maze escape time,[3],reduction of escape time
same,Morris water maze times across platform,[3],increase in times across platform
same,astrocyte reaction level in the brain,[4]; p.o.,"significantly reduced, too"
same,astrocyte reaction in the brain,[4]; [12],all reduced significantly
same,cell survival rate,[5],cell survival rate increases significantly
same,inhibition of Aβ aggregation (thioflavin T),[6],effectively inhibit Aβ aggregation in a dose-dependent manner
same,microglia reaction level in the brain,[7]; p.o.,"significantly reduced, too"
same,microglia reaction in the brain,[7]; [12],all reduced significantly
same,"Aβ 40, Aβ 42 levels in brain extracts",[8],"significantly reduce the levels of Aβ at different, aggregation states"
same,Gsk-3β activities in vitro,[9],inhibits the Gsk-3β activities
same,neuron apoptosis in the brain,[10],significantly reduce the neuron apoptosis
same,Aβ induced oxidative stress (ROS test),[11],reverse the Aβ induced oxidative stress
